Data as given in patent US12649750B2, “Macrocyclic compounds, compositions, and methods of using thereof” (Sionna Therapeutics Inc., priority 2022, dated 2026).

Biological target: T1, NBD1 (Homo sapiens, UniProt P13569)
T1 construct: Purified recombinant NBD1 was produced using previously described methods; made in house
Test: Aggregation analysis using differential static light scattering (DSLS), thermal stability of NBD1 (ΔTagg)
Assay type: binding
Details: ΔTagg versus DMSO control, NBD1 0.2 mg/ml
Procedure, shortened: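 Thermal aggregation of purified NBD1 was followed by static light scattering during a 1° C./min ramp to 70° C. Protein was at 0.2 mg/ml with 2 mM ATP at pH7.6. Each compound's Tagg was referenced to DMSO controls.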

T1 sequence (P13569 423-646 limits assumed): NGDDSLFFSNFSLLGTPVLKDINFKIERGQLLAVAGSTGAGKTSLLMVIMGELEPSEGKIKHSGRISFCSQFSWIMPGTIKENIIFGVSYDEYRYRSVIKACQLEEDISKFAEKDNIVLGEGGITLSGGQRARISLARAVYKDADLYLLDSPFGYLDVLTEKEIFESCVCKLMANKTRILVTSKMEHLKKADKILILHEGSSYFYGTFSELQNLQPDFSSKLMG

Row | Structure (SMILES) | DSLS 3D (100 μM ΔT)
1 | CCOC(=O)[C@@H](C)Cc1cccc(C2CCCC(C)(C)CS(=O)(=O)CCc3c(c(F)cc4[nH]ccc34)C(=O)c3cccc(c3)-c3ccn2n3)c1 (stereo partly drawn) [Compound 161, Ethyl (2S)-3-[3-(22-fluoro-10,10-dimethyl-12,12,24-trioxo-12λ6-thia-5,19,30-triazapentacyclo[23.3.1.12,5.015,23.016,20]triaconta-1(29),2(30),3,15,17,20,22,25,27-nonaen-6-yl)phenyl]-2-methyl-propanoate] | A (an ΔTagg value less than or equal to 5 °C is marked “A”)
2 | C[C@H](Cc1cccc([C@@]2(C)CCCC(C)(C)CS(=O)(=O)CCc3c(c(F)c(F)c4[nH]ccc34)S(=O)(=O)c3ccnc(c3)-c3nc2nn3C)c1)C(=O)O [Compound 301, (2R)-3-[3-[(6R)-21,22-difluoro-3,6,10,10-tetramethyl-12,12,24,24-tetraoxo-12λ6,24λ6-dithia-3,4,19,28,30-pentazapentacyclo[23.3.1.12,5.015,23.016,20]triaconta-1(29),2(30),4,15,17,20,22,25,27-nonaen-6-yl]phenyl]-2-methyl-propanoic Acid] | A (an ΔTagg value less than or equal to 5 °C is marked “A”)
3 | Cn1nc2nc1-c1cc(ccc1F)Sc1c(F)cc3[nH]ccc3c1CCS(=O)(=O)CC(C)(C)CCC[C@]2(C)c1cccc([C@H](O)CO)c1 [Compound 302A, (1S)-1-[3-[(6R)-22,28-Difluoro-3,6,10,10-tetramethyl-12,12-dioxo-12λ6,24-dithia-3,4,19,30-tetrazapentacyclo[23.3.1.12,5.015,23.016,20]triaconta-1(29),2(30),4,15,17,20,22,25,27-nonaen-6-yl]phenyl]ethane-1,2-diol] | B (a value above 5 °C and less than or equal to 10 °C is marked “B”)
4 | Cn1nc2nc1-c1cc(ccc1F)Sc1c(F)c(F)c3[nH]ccc3c1CCS(=O)(=O)CC(C)(C)CCC[C@]2(C)c1cccc(CC2(C(=O)O)CC2)c1 [Compound 303A, 1-[[3-[(6R)-21,22,28-Trifluoro-3,6,10,10-tetramethyl-12,12-dioxo-12λ6,24-dithia-3,4,19,30-tetrazapentacyclo[23.3.1.12,5.015,23.016,20]triaconta-1(29),2(30),4,15,17,20,22,25,27-nonaen-6-yl]phenyl]methyl]cyclopropanecarboxylic acid] | B (a value above 5 °C and less than or equal to 10 °C is marked “B”)
5 | C[C@@H](Cc1cccc([C@@]2(C)CCCC(C)(C)CS(=O)(=O)CCc3c(c(F)c(F)c4[nH]ccc34)Cc3ccnc(c3)-c3nc2nn3C)c1)C(=O)O [Compound 304, (2S)-3-[3-[(6R)-21,22-Difluoro-3,6,10,10-tetramethyl-12,12-dioxo-12λ6-thia-3,4,19,28,30-pentazapentacyclo[23.3.1.12,5.015,23.016,20]triaconta-1(29),2(30),4,15,17,20,22,25,27-nonaen-6-yl]phenyl]-2-methyl-propanoic Acid] | B (a value above 5 °C and less than or equal to 10 °C is marked “B”)
6 | C[C@H](Cc1cccc([C@@]2(C)CCCC(C)(C)CS(=O)(=O)CCc3c(c(F)c(F)c4[nH]ccc34)Cc3ccnc(c3)-c3nc2nn3C)c1)C(=O)O [Compound 305, (2R)-3-[3-[(6R)-21,22-Difluoro-3,6,10,10-tetramethyl-12,12-dioxo-12λ6-thia-3,4,19,28,30-pentazapentacyclo[23.3.1.12,5.015,23.016,20]triaconta-1(29),2(30),4,15,17,20,22,25,27-nonaen-6-yl]phenyl]-2-methyl-propanoic acid] | B (a value above 5 °C and less than or equal to 10 °C is marked “B”)
7 | Cn1nc2nc1-c1cc(ccn1)Cc1c(F)c(F)c3[nH]ccc3c1CCS(=O)(=O)CC(C)(C)CCC[C@]2(C)c1cccc(CC2(C(=O)O)CC2)c1 [Compound 306, 1-[[3-[(6R)-21,22-Difluoro-3,6,10,10-tetramethyl-12,12-dioxo-12λ6-thia-3,4,19,28,30-pentazapentacyclo[23.3.1.12,5.015,23.016,20]triaconta-1(29),2(30),4,15,17,20,22,25,27-nonaen-6-yl]phenyl]methyl]cyclopropanecarboxylic Acid] | A (an ΔTagg value less than or equal to 5 °C is marked “A”)
